Columns and labels:
Friend-Leukämie-Virus [1] = assay: Friend leukaemia virus (FLV) infection in the mouse, i.p. application (Tabelle I); assay type: in vivo, Maus; conditions: for rel. Milzgewicht: NMRI mice, treatment over 10 days starting 48 h after infection, spleen weighed day 14; for n* Anzahl überlebende Mäuse: groups of 10 mice
From the text: (§1) Blockierung der Reverse Transkriptase-(RT)-Aktivität untersucht wird, erscheint die Wahl eines solchen Ersatzmodelles gerechtfertigt. Im vorliegenden Fall wurde die Infektion der Maus mit dem Friend-Leukämie-Virus gewählt. Dazu wurden normale Labormäuse (NMRI = Naval Medical Research Institute) durch intravenöse Injektion mit Friend-Virus enthaltendem Mäuseserum infiziert. Bei den unbehandelten Kontrolltieren entwickelte sich als Symptom der Infektion innerhalb von 2 Wochen eine deutliche Vergrößerung von Milz und Leber. Die Behandlung erfolgte über 10 Tage, beginnend 48 Stunden nach der Infektion. Am 14. Versuchstag wurden die Tiere durch Luxation der Halswirbel getötet und geöffnet. Die Milz wurde entnommen und gewogen. Als Meßparameter der therapeutischen Wirksamkeit wurde das Milzgewicht der behandelten Tiere mit dem der unbehandelten Infektionskontrolle in Relation gesetzt.
Während bei uninfizierten ausgewachsenen Labormäusen (20 - 24 g Körpergewicht) die Milz etwa 1 % des Körpergewichtes oder weniger wog, erreichte bei infizierten Tieren die Milz am Ende des Versuchs etwa 10 % des Körpergewichts.
Tabelle I zeigt die Ergebnisse der Wirksamkeitstests bei der Friend-Leukämie-Virusinfektion in der Maus bei intraperitonealer Verabreichung der erfindungsgemäßen Verbindungen. Als Kontrolle diente eine Gruppe von Mäusen, die unbehandelt blieben.
Zum Vergleich wurde eine weitere Gruppe von Mäusen mit Suramin behandelt. Tabelle I verdeutlicht, daß die erfindungsgemäßen Verbindungen besser wirken als Suramin, bei vergleichbarer oder geringerer Beeinträchtigung des Hämaglobingehaltes des Blutes. Bei Verabreichung der erfindungsgemäßen Verbindungen überlebten alle Mäuse die Behandlung, wohingegen bei der Verabreichung von Suramin 3 von 10 Mäusen starben. Weiterhin war der Behandlungserfolg, erkennbar an der Verringerung der Milzschwellung, bei Verabreichung aller getesteten Verbindungen größer als bei der Verabreichung von Suramin.

[2] = Qualitative solubility noted in the preparation examples; assay type: physicochemical
Friend-Leukämie-Virus [3] = assay: Friend leukaemia virus (FLV) infection in the mouse, oral application via drinking water (Tabelle II); assay type: in vivo, Maus; conditions: for n* Anzahl überlebende Mäuse / Hg: oral; for Hg: haemoglobin content of blood
From the text: as §1, with “Bei den unbehandelten Kontrolltieren entwickelte sich als Symptom der Infektion innerhalb von 2 Wochen eine deutliche Vergrößerung von Milz und Leber.” left out

[4] = 0.05 mg/ml in drinking water, oral (10 x 0.17-0.18 mg/Maus)
[5] = 0.10 mg/ml in drinking water, oral (10 x 0.33-0.36 mg/Maus)
[6] = 0.50 mg/ml in drinking water, oral (10 x 1.67-1.77 mg/Maus)

Row | Compound | rel. Milzgewicht (Friend-Leukämie-Virus [1]; 10 x 0.1 mg/Maus i.p.) | rel. Milzgewicht (Friend-Leukämie-Virus [1]; 10 x 1.0 mg/Maus i.p.) | rel. Milzgewicht (Friend-Leukämie-Virus [3]; [4]) | rel. Milzgewicht (Friend-Leukämie-Virus [3]; [5]) | n* Anzahl überlebende Mäuse (Friend-Leukämie-Virus [3]; 0.05 mg/ml in drinking water) | n* Anzahl überlebende Mäuse (Friend-Leukämie-Virus [3]; 0.10 mg/ml in drinking water) | rel. Milzgewicht (Friend-Leukämie-Virus [3]; [6]) | further results
1 | C=CCSc1ncnc2[nH]cnc12 [Präparat 3, 6-(2-propenyl)-mercaptopurin] | 5.86 ± 1.84 % Körpergewicht | 1.37 ± 0.38 % Körpergewicht | 4.52 ± 2.28 % Körpergewicht | 1.51 ± 1.26 % Körpergewicht | – | – | – | Löslichkeit in Alkohol, heißem Wasser und Polyethylenglykol [2]: leicht löslich; Löslichkeit in kaltem Wasser [2]: Schwer löslich
2 | c1cc(CSc2ncnc3[nH]cnc23)ccn1 [Präparat 1, 6-(4-pyridylmethyl)-mercaptopurin] | 5.23 ± 2.69 % Körpergewicht | 2.08 ± 0.44 % Körpergewicht | 7.01 ± 2.99 % Körpergewicht | 4.80 ± 2.74 % Körpergewicht | 10 | 10 | 1.66 ± 1.25 % Körpergewicht | n* Anzahl überlebende Mäuse (Friend-Leukämie-Virus [1]; 10 x 0.1 mg/Maus i.p.): 10; n* Anzahl überlebende Mäuse (Friend-Leukämie-Virus [1]; 10 x 1.0 mg/Maus i.p.): 10; Hg (Friend-Leukämie-Virus [1]; 10 x 1.0 mg/Maus i.p., haemoglobin content of blood): 13.2 g/ %; Löslichkeit in Wasser ([2]; free base): unlöslich; Löslichkeit in allen säurehaltigen Flüssigkeiten ([2]; free base): gut löslich; n* Anzahl überlebende Mäuse (Friend-Leukämie-Virus [3]; 0.50 mg/ml in drinking water): 10; Hg (Friend-Leukämie-Virus [3]; 0.50 mg/ml in drinking water): 11.3 g/%
3 | Cc1cn([C@H]2C[C@H](N=[N+]=[N-])[C@@H](CO)O2)c(=O)[nH]c1=O [AZT, Azidothymidin, reference compound] | – | – | – | – | 10 | 10 | – | Hg (Friend-Leukämie-Virus [3]; 0.05 mg/ml in drinking water): 14.1 g/%; Hg (Friend-Leukämie-Virus [3]; 0.10 mg/ml in drinking water): 12.7 g/%
4 | c1cncc(CSc2ncnc3[nH]cnc23)c1 [Präparat 2, 6-(3-Pyridylmethyl)-mercaptopurin] | 5.46 ± 3.32 % Körpergewicht | 1.84 ± 0.82 % Körpergewicht | 5.76 ± 2.72 % Körpergewicht | 1.46 ± 1.00 % Körpergewicht | – | – | 0.90 ±1.12 % Körpergewicht | –
5 | Cc1ccc(C(=O)Nc2ccc(S(=O)(=O)O)c3cc(S(=O)(=O)O)cc(S(=O)(=O)O)c23)cc1NC(=O)c1cccc(NC(=O)Nc2cccc(C(=O)Nc3cc(C(=O)Nc4ccc(S(=O)(=O)O)c5cc(S(=O)(=O)O)cc(S(=O)(=O)O)c45)ccc3C)c2)c1 [Suramin, reference compound] | – | 4.54 ± 1.86 % Körpergewicht | – | – | – | – | – | Mäuse starben (Friend-Leukämie-Virus [1]; in vivo, ip): 3; rel. Milzgewicht (Friend-Leukämie-Virus [3]; 10 x 1.00 mg/Maus i.p., comparison group within the Tabelle II experiment): 4.50 ± 2.22 % Körpergwicht

From EP0350742A1, “6-Merkaptopurines derivatives, their preparation and their use against retrovirus infections” (HOECHST AKTIENGESELLSCHAFT, priority 1988, dated 1990)
